In paper PMC7719162, “Positioning of an unprecedented spiro[5.5]undeca ring system into kinase inhibitor space” (Scientific Reports, 2020):
Where two headings read alike, the source gives them in different places.

Legend:
Haspin = target: T1, Haspin (Homo sapiens, UniProt Q8TF76); details: cited from earlier work
T1 construct: purchased Reaction Biology Corp
T1 sequence (Q8TF76 1-798): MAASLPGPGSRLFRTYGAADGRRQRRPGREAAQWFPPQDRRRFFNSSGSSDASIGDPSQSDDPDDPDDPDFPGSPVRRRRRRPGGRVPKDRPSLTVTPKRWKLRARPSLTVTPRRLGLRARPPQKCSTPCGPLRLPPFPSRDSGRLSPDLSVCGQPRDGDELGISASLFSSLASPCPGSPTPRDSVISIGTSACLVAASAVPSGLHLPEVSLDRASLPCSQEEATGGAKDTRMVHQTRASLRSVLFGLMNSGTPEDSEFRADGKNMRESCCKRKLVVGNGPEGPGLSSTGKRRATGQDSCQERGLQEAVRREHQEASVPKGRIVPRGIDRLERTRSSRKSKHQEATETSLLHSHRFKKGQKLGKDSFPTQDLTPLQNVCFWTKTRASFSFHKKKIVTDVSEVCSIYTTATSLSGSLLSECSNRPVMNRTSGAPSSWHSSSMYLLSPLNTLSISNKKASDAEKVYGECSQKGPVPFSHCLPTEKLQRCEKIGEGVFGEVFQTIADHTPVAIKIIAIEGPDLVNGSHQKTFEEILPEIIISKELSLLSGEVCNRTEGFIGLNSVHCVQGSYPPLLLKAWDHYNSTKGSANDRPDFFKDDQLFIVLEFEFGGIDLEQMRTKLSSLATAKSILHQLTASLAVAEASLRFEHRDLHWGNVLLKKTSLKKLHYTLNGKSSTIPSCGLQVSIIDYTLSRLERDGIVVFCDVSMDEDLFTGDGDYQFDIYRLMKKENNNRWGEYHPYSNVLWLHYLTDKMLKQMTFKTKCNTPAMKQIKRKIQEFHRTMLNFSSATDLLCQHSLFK

TLK1 = target: T2, TLK1 (Homo sapiens, UniProt Q9UKI8); experiment: Kinase panel assay (radiolabelled); assay type: biochemical; details: ATP 10 μM
T2 construct: purchased Reaction Biology Corp
T2 sequence (Q9UKI8 1-766): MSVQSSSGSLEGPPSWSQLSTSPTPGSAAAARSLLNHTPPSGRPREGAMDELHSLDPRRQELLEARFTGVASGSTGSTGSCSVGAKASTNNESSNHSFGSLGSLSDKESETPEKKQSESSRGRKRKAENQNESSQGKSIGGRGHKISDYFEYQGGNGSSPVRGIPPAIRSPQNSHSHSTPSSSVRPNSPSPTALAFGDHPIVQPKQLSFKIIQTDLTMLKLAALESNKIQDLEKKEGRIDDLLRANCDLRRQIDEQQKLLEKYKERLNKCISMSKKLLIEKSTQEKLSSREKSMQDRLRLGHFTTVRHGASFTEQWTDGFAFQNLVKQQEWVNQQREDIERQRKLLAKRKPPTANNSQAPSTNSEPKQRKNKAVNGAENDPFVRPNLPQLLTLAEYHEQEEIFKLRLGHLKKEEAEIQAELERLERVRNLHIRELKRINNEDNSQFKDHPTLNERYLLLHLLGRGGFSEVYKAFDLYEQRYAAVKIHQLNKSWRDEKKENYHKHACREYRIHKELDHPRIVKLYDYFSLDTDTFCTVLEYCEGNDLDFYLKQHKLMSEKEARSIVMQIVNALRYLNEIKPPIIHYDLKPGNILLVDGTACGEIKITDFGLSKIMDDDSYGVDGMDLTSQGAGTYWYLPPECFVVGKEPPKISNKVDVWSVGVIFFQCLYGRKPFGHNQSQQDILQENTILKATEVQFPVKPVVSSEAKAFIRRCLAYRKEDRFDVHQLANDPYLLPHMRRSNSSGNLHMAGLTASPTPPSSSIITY

DAPK2 = target: T3, DAPK2 (Homo sapiens, UniProt Q9UIK4); experiment: Kinase panel assay (radiolabelled); assay type: biochemical; details: ATP 10 μM
T3 construct: purchased Reaction Biology Corp
T3 sequence (Q9UIK4 whole entry): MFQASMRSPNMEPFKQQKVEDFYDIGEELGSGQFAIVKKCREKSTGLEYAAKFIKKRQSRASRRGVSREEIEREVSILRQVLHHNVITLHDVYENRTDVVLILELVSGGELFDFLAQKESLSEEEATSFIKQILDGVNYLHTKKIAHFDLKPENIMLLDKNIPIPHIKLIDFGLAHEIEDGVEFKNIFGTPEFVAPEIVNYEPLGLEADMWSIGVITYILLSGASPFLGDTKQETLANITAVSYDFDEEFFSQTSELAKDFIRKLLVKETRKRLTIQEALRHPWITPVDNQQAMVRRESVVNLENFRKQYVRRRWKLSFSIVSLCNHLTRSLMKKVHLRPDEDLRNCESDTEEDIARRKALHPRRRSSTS

ROCK1 = target: T4, ROCK1 (Homo sapiens, UniProt Q13464); experiment: Kinase panel assay (radiolabelled); assay type: biochemical; details: ATP 10 μM
T4 construct: purchased Reaction Biology Corp
T4 sequence (Q13464 whole entry): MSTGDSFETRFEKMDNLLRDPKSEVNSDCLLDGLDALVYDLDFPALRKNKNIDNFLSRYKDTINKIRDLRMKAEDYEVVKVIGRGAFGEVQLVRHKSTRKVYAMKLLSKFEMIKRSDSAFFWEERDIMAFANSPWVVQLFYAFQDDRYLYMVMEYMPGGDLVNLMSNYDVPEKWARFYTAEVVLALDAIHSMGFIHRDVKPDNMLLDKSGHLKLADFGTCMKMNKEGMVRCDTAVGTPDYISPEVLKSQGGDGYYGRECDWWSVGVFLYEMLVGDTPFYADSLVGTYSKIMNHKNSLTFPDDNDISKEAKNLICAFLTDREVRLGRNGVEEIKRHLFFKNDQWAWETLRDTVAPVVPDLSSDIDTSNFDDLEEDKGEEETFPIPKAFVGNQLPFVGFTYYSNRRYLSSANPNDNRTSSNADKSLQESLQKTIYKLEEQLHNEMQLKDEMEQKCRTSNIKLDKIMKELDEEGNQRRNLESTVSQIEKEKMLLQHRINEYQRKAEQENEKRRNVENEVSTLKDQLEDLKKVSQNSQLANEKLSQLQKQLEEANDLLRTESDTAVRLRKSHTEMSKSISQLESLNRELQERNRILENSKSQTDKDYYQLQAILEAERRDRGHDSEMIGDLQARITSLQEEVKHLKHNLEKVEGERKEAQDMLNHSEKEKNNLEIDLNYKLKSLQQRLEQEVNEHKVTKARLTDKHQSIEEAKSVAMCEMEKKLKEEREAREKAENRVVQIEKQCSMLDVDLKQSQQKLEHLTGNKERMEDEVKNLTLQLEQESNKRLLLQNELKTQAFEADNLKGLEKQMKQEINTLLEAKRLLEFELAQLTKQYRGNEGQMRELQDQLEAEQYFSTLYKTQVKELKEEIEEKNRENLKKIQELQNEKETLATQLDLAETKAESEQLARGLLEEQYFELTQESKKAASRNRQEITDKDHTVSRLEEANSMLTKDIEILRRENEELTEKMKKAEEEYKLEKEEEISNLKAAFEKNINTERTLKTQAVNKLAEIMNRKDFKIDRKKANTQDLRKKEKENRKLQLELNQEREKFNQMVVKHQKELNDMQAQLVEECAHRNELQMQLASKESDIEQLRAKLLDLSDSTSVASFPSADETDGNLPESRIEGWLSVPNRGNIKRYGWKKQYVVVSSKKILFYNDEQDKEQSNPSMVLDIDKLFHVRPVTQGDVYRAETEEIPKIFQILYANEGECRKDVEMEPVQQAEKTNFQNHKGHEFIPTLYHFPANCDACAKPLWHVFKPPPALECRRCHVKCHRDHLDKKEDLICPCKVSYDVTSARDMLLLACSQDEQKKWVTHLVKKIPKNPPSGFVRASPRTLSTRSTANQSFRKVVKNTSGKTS

P38b/MAPK11 = target: T5, P38b/MAPK11 (Homo sapiens, UniProt Q15759); experiment: Kinase panel assay (radiolabelled); assay type: biochemical; details: ATP 10 μM
T5 construct: purchased Reaction Biology Corp
T5 sequence (Q15759 whole entry): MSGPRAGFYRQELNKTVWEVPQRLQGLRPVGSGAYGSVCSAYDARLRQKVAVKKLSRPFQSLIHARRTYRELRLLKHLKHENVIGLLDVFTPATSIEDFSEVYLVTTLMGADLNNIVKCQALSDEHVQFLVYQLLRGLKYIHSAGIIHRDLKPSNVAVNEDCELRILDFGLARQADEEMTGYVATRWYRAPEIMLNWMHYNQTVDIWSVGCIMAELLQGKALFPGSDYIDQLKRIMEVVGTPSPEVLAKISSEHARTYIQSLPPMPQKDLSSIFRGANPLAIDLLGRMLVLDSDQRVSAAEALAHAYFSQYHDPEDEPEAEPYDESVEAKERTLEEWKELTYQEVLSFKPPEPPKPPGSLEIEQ

[1] = 30 μM compound, duplicates Data 1/Data 2
[2] = 30 μM compound, duplicates Data 1/Data 2, read-out: % Enzyme Activity (relative to DMSO controls)
[3] = 30 μM, average ± SD, read-out: % Residual Activity at 30 μM

For `O=C1C=CC2(C=C1)OCC(Cc1cc(C(F)(F)F)cc(C(F)(F)F)c1)C(=O)N2c1ccccc1` (racemic) [1c], the “% Residual Activity at 30 μM” value (Haspin) is listed as 66.4 ± 0.5%.

With `O=C1C=CC2(C=C1)OCC(Cc1cn(-c3cccc(Cl)c3)nn1)C(=O)N2c1ccccc1` (stereo not shown) [2d, 3-((1-(3-Chlorophenyl)-1H-1,2,3-triazol-4-yl)methyl)-5-phenyl-1-oxa-5-azaspiro[5.5]undeca-7,10-diene-4,9-dione] the “% Enzyme Activity (relative to DMSO controls)” value (TLK1; [1]) was 81.34%, the remaining activity at 30 µM (TLK1; [2]) was 82.1% and the remaining activity at 30 µM (TLK1; [3]) was 81.7 ± 0.5%. The “% Enzyme Activity (relative to DMSO controls)” value (DAPK2; [1]) was 109.81%, the remaining activity at 30 µM (DAPK2; [2]) was 111% and the remaining activity at 30 µM (DAPK2; [3]) was 110.2 ± 0.6%. The “% Enzyme Activity (relative to DMSO controls)” value (ROCK1; [1]) was 101.05%, the remaining activity at 30 µM (ROCK1; [2]) was 105% and the remaining activity at 30 µM (ROCK1; [3]) was 103 ± 3.1%. For the same compound, the “% Enzyme Activity (relative to DMSO controls)” value (P38b/MAPK11; [1]) was 109.52%, the remaining activity at 30 µM (P38b/MAPK11; [2]) was 110% and the remaining activity at 30 µM (P38b/MAPK11; [3]) was 109.9 ± 0.5%.
